Laboratory results: patent US10709692B2, “Isoxazolidine derived inhibitors of receptor interacting protein kinase 1 (RIPK1)” (Denali Therapeutics Inc., priority 2015, dated 2020)

These molecules were tested against T1, receptor interacting protein kinase 1 (GST-hRIPK1 (8-327)) (Homo sapiens, UniProt Q13546) (assay: Fluorescent Polarization Binding (FP Binding) assay). Details: 10 nM GST-hRIPK1 (8-327), 5 nM fluorescent-labeled ligand, 30 min at RT.
T1 construct: GST-hRIPK1 (8-327) enzyme was generated by Proteros GmbH by Baculovirus expression system
T1 sequence (Q13546 8-327): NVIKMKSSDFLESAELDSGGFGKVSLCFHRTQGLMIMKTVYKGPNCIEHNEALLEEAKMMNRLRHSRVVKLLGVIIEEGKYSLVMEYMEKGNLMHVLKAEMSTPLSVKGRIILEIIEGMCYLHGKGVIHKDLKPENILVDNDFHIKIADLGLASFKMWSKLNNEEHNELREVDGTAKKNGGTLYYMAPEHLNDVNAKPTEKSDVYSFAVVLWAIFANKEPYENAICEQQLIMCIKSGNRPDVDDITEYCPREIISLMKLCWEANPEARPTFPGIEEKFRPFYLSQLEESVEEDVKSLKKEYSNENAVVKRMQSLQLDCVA
Protocol: Fluorescent Polarization Binding (FP Binding) assay (Berger S. B. et al. (2015) Cell Death Discovery, 1: 15009; Maki J. L. et al. (2012) Anal Biochem., 427(2): 164-174) was performed in polystyrene low volume 384-well black plate, at Room Temperature (RT) in a final volume of 10.1 μl/well using 10 nM of GST-hRIPK1 (8-327) enzyme and 5 nM of fluorescent-labeled ligand (14-(2-{[3-({2-{[4-(cyanomethyl)phenyl]amino}-6-[(5-cyclopropyl-1H-pyrazol-3-yl)amino]-4-pyrimidinyl}amino) propyl]amino}-2-oxoethyl)-16,16,18,18-tetramethyl-6,7,7a,8a,9,10,16,18-octahydrobenzo[2″3″]indolizino[8″, 0.7″:5′,6′]pyrano[3′,2′:3,4]pyrido[1,2-a]indol-5-ium-2-sulfonate.
Test compounds were serially diluted in DMSO at 100 fold final concentrations in the assay (1% DMSO final). In each well of a 384-well Plate were dispensed 0.1 μL of compound solution (or DMSO for controls) followed by 5 μL of GST-hRIPK1 (8-327) at twice the final concentrations in assay-buffer (50 mM HEPES pH 7.5, 10 mM NaCl, 50 mM MgCl2, 0.02% CHAPS, 0.5 mM DTT and 0.01% Pluronic F127). For negative control the enzyme addition was replaced by assay buffer only.
After addition of 5 μL of fluorescent-labeled ligand at twice the final concentrations in assay buffer, the plate was incubated at RT for 30 min. At the end, the binding was measured as FP value with the Envision (PerkinElmer) plate reader using filter for an excitation λ=531 nm FP and an emission λ=595 nm FP (S & P-pol).
Test compound inhibition was expressed as percent inhibition of internal assay controls. For concentration response curves, normalized data is fit and IC50 determined using XL-fit (IDBS) for Excel. IC50 were averaged to determine a mean value, for a minimum of two independent experiments.
Receptor interacting protein kinase 1 activity of exemplary compounds was determined according to the above general procedures.
Receptor interacting protein kinase 1 activity of certain compounds was determined according to the above general procedures.

SMILES | IC50 [nM]
CC1(C(=O)N2OCC[C@H]2c2ccc(F)cc2)CN(CC(F)F)C1 [Compound 90, (3S)-2-[1-(2,2-difluoroethyl)-3-methylazetidine-3-carbonyl]-3-(4-fluorophenyl)-1,2-oxazolidine] | < 1000
CC1(S(=O)(=O)N2OCC[C@H]2c2ccc(F)nc2)CC1 [Compound 93, 2-fluoro-5-[(3S)-2-[(1-methylcyclopropyl)sulfonyl]-1,2-oxazolidin-3-yl]pyridine] | 1000 to 10000
CC(C)(CO)C(=O)N1OCC[C@H]1c1ccc(F)cc1 [Compound 96, 1-[(3S)-3-(4-fluorophenyl)-1,2-oxazolidin-2-yl]-3-hydroxy-2,2-dimethylpropan-1-one] | < 1000
Cc1cnc([C@@H]2CCON2C(=O)C(C)(C)CC#N)cn1 [Compound 104, 3,3-dimethyl-4-[(3S)-3-(5-methylpyrazin-2-yl)-1,2-oxazolidin-2-yl]-4-oxobutanenitrile] | < 1000
CC(C)(C)C(=O)N1OCC[C@H]1c1ccc(C(F)(F)F)nc1 [Compound 120] | < 1000
CC(C)(C)C(=O)N1OCC[C@H]1c1ncc(Cl)cc1F [Compound 121, 1-[(3S)-3-(5-chloro-3-fluoropyridin-2-yl)-1,2-oxazolidin-2-yl]-2,2-dimethylpropan-1-one] | < 1000
CC(C)(C)C(=O)N1OCC[C@H]1c1ccc(C(F)(F)F)cn1 [Compound 122, 2,2-dimethyl-(3S)-3-[5-(trifluoromethyl)pyridin-2-yl-1,2-oxazolidin-2-yl]propan-1-one] | < 1000
CC(C)(C)C(=O)N1OCC[C@H]1c1nc(C(F)(F)F)cs1 [Compound 123, 2,2-dimethyl-1-[(3S)-3-[4-(trifluoromethyl)-1,3-thiazol-2-yl]-1,2-oxazolidin-2-yl]propan-1-one] | 1000 to 10000
Cc1ncc([C@@H]2CCON2C(=O)C(C)(C)C(F)F)cn1 [Compound 126, 3,3-difluoro-2,2-dimethyl-1-[(3S)-3-(2-methylpyrimidin-5-yl)-1,2-oxazolidin-2-yl]propan-1-one] | < 1000
CC(C)(C)C(=O)N1OCC[C@H]1c1ccc(C(F)F)cc1 [Compound 128, 1-[(3S)-3-[4-(difluoromethyl)phenyl]-1,2-oxazolidin-2-yl]-2,2-dimethylpropan-1-one] | < 1000

Continued, values first:

IC50 [nM] | SMILES
1000 to 10000 | CC(C)(C)C(=O)N1OCC[C@@H]1c1cccc(F)c1 [Compound 82, (R)-1-(3-(3-fluorophenyl)isoxazolidin-2-yl)-2,2-dimethylpropan-1-one]
< 1000 | CC(C)(C)C(=O)N1OCC[C@H]1c1ccc(Cl)cn1 [Compound 89, 1-[(3S)-3-(5-chloropyridin-2-yl)-1,2-oxazolidin-2-yl]-2,2-dimethylpropan-1-one]
< 1000 | CC(C)(C)C(=O)N1OCC[C@H]1c1ccc(C(F)F)nc1 [Compound 105, 1-[(3S)-3-[6-(difluoromethyl)pyridin-3-yl]-1,2-oxazolidin-2-yl]-2,2-dimethylpropan-1-one]
< 1000 | CC(C)(C)C(=O)N1OCC[C@H]1c1ccn2ccnc2c1 [Compound 110, 1-[(3S)-3-{imidazo[1,2-A]pyridin-7-yl}-1-oxazolidin-2-yl]-2,2-dimethylpropan-1-one]
1000 to 10000 | CC(C)(C)C(=O)N1OCC[C@H]1c1cn2ccccc2n1 [Compound 111, 1-(3S)-3-{imidazo[1,2-A]pyridin-2-yl}-1,2-oxazolidin-2-yl-2,2-dimethylpropan-1-one]
< 1000 | CC(C)(C)C(=O)N1OCC[C@H]1c1cc2ccccn2n1 [Compound 124, 2,2-dimethyl-1-[(3S)-3-{pyrazolo[1,5-A]pyridin-2-yl}-1,2-oxazolidin-2-yl]propan-1-one]
< 1000 | Cc1ncc([C@@H]2CCON2C(=O)C(C)(C)C)cn1 [Compound 125, 2,2-dimethyl-1-[(3S)-3-(2-methylpyrimidin-5-yl)-1,2-oxazolidin-2-yl]propan-1-one]
< 1000 | CC(C)(C)C(=O)N1OCC[C@H]1c1ccc(F)cn1 [Compound 127, 1-[(3S)-3-(5-fluoropyridin-2-yl)-1,2-oxazolidin-2-yl]-2,2-dimethylpropan-1-one]
